“And” between values parts separate entries of the source, which are not always exact repeats. Identical values can stand only once. Like-named read-outs stand apart in the source and are kept apart here.
Columns and labels:
[1] = test system: Corn
[2] = test system: Giant foxtail (GIFT); experiment: whole plant or invertebrate; format: in vivo; details: in vivo
[3] = test system: Shattercane (SHCA); format: in vivo
[4] = test system: Velvetleaf (VELE); format: in vivo, Abutilon theophrasti
[5] = Antidote 4.48 + Biocide No. 1 8.96 Kg/Ha PPI, Herb. No. 8 0.07, 5 DAP, before herbicide application
[6] = Antidote 4.48 + Biocide No. 1 8.96 Kg/Ha PPI, Herb. No. 8 0.07 POE, 13 DAP
[7] = Antidote 4.48 + Biocide No. 1 8.96 Kg/Ha PPI, Herbicide No. 7 0.28 POE, 13 days after planting
[8] = Herb. […], 5 DAP, before herbicide application
[9] = Table 14: Herbicide No. 7 (ACCENT) 0.84 Kg/Ha POE + Biocide No. 2 8.96 Kg/Ha PPI + antidote 4.48 Kg/Ha PPI, 13 days after planting, 8 days after herbicide
[10] = […], 13 days after planting, 8 days after herbicide
[11] = […], observed 10 days after herbicide application
[12] = Herb. […], 13 DAP, after herbicide application
[13] = Antidote 8.96 + Biocide No. 1 8.96 Kg/Ha PPI, Herb. No. 8 0.07, 5 DAP, before herbicide application
[14] = Antidote 8.96 + Biocide No. 1 8.96 Kg/Ha PPI, Herb. No. 8 0.07 POE, 13 DAP
[15] = Antidote 8.96 + Biocide No. 1 8.96 Kg/Ha PPI, Herbicide No. 7 0.28 POE, 13 days after planting
[16] = Table 14: Herbicide No. 7 (ACCENT) 0.84 Kg/Ha POE + Biocide No. 2 8.96 Kg/Ha PPI + antidote 8.96 Kg/Ha PPI, 13 days after planting, 8 days after herbicide

Row | Compound | % Inhibition 5 DAP Corn [1, 5] [%] | % Inhibition 13 DAP Corn [1, 6] [%] | % Inhibition Corn [1, 7] [%] | % Inhibition 5 DAP Corn [1, 8] [%] | % Inhibition Corn [1, 9] [%] | % Inhibition Corn [1, 10] [%] | % Inhibition Corn [1, 11] [%] | % Inhibition 5 DAP Corn ([1]; in vivo) [%] | % Inhibition 13 DAP Corn ([1]; in vivo) [%] | % Inhibition GIFT [2] | % Inhibition 5 DAP SHCA [3, 8] [%] | % Inhibition SHCA [3, 10] [%] | % Inhibition SHCA [3, 11] [%] | % Inhibition 5 DAP SHCA ([3]; in vivo) [%] | % Inhibition 13 DAP SHCA ([3]; in vivo) [%] | % Inhibition 5 DAP VELE [4, 8] [%] | % Inhibition VELE [4, 10] [%] | % Inhibition VELE [4, 11] [%] | % Inhibition 5 DAP VELE ([4]; in vivo) [%] | % Inhibition 13 DAP VELE ([4]; in vivo) [%] | further results
1 | Clc1cc(Cl)nc(-c2ccccc2)n1 [compound 31] | 10 | 75 | 65 | 0 | 45 | 30 | 70 | 15 | 65 | 55% and 80% and 85% and 75% and 95% and 60% | 0 | 85 | 65 | 20 | 80 | 0 | 65 | 80 | 0 | 85 | activity in reducing corn injury ([1]; primisulfuron POE + biocides PPI, Tables 8-10): either inactive or weakly active; % Inhibition 5 DAP SHCA [3, 5]: 0%; % Inhibition 13 DAP SHCA [3, 6]: 80%; % Inhibition SHCA [3, 7]: 75%; % Inhibition SHCA [3, 9]: 75%; % Inhibition SHCA ([3]; in vivo): 85% and 50% and 60% and 45%; % Inhibition 5 DAP VELE [4, 5]: 0%; % Inhibition 13 DAP VELE [4, 6]: 85%; % Inhibition VELE [4, 7]: 65%; % Inhibition 13 DAP VELE [4, 12]: 95%; % Inhibition VELE [4, 9]: 65%
2 | C=CCN(CC=C)C(=O)C(Cl)Cl [compound 2] | 10 | 50 | 30 | 0 | 20 | 15 | 60 | 20 | 45 | 50% and 55% and 80% and 60% and 70% and 90% | 0 | 90 | 65 | 20 | 85 | 0 | 60 | 80 | 0 | 85 | % Inhibition 5 DAP SHCA [3, 5]: 0%; % Inhibition 13 DAP SHCA [3, 6]: 85%; % Inhibition SHCA [3, 7]: 75%; % Inhibition SHCA [3, 9]: 75%; % Inhibition 5 DAP VELE [4, 5]: 0%; % Inhibition 13 DAP VELE [4, 6]: 95%; % Inhibition VELE [4, 7]: 65%; % Inhibition VELE [4, 9]: 70%
3 | CC(N=C1SCC(=C(Cl)Cl)S1)c1ccccc1 (stereo not shown) [compound 4] |  |  |  | 0 |  | 25 | 65 | 15 | 30 | 50% and 65% and 60% and 90% and 55% | 0 | 90 | 65 | 30 | 65 | 0 | 70 | 80 | 0 | 90 | % Inhibition 5 DAP Corn [1, 13]: 10%; % Inhibition 13 DAP Corn [1, 14]: 60%; % Inhibition Corn [1, 15]: 50%; % Inhibition Corn [1, 16]: 15%; % Inhibition 5 DAP SHCA [3, 13]: 10%; % Inhibition 13 DAP SHCA [3, 14]: 85%; % Inhibition SHCA [3, 15]: 75%; % Inhibition 13 DAP SHCA [3, 12]: 90%; % Inhibition SHCA [3, 16]: 70%; % Inhibition SHCA ([3]; in vivo): 70% and 55% and 60% and 45%; % Inhibition 5 DAP VELE [4, 13]: 0%; % Inhibition 13 DAP VELE [4, 14]: 90%; % Inhibition VELE [4, 15]: 70%; % Inhibition VELE [4, 16]: 65%
4 | C=CCSC(=S)N(C)c1ccccc1 [compound 29] | 0 | 65 | 60 | 0 | 35 | 35 | 75 | 35 | 65 | 55% and 75% and 65% and 95% | 10 | 85 | 60 | 40 | 85 | 0 | 65 | 75 | 20 | 95 | % Inhibition 5 DAP SHCA [3, 5]: 40%; % Inhibition 13 DAP SHCA [3, 6]: 80%; % Inhibition SHCA [3, 7]: 70%; % Inhibition SHCA [3, 9]: 80%; % Inhibition SHCA ([3]; in vivo): 80% and 75% and 65% and 45%; % Inhibition 5 DAP VELE [4, 5]: 0%; % Inhibition 13 DAP VELE [4, 6]: 95%; % Inhibition VELE [4, 7]: 70%; % Inhibition VELE [4, 9]: 70%

Source: EP0565593B1, “REDUCING PESTICIDAL INTERACTIONS IN CROPS” (priority 1990, dated 1992)
